Assay results as given in PubChem BioAssay (NCI).
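How tested: cells in 96-well plates exposed to compound for 48 hours at five concentrations. Abbreviation: GI50, concentration required for 50% inhibition of growth. TGI: total growth inhibition.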

Tests used:
Experiment in all cases: NCI anticancer screen, dose series, 48 h
SK-OV-3 ovarian = test system: SK-OV-3 ovarian
SR leukemia = test system: SR leukemia
SK-MEL-28 melanoma = test system: SK-MEL-28 melanoma
EKVX NSCLC = test system: EKVX NSCLC
OVCAR-3 ovarian = test system: OVCAR-3 ovarian
U251 CNS = test system: U251 CNS
NCI-H23 lung = test system: NCI-H23 lung
SF-295 CNS = test system: SF-295 CNS
OVCAR-8 ovarian = test system: OVCAR-8 ovarian
786-0 renal = test system: 786-0 renal
K-562 leukemia = test system: K-562 leukemia
SNB-75 CNS = test system: SNB-75 CNS
RPMI-8226 leukemia = test system: RPMI-8226 leukemia
OVCAR-5 ovarian = test system: OVCAR-5 ovarian
MDA-MB-231 breast = test system: MDA-MB-231 breast
M14 melanoma = test system: M14 melanoma
ACHN renal = test system: ACHN renal
UO-31 renal = test system: UO-31 renal
HT29 colon = test system: HT29 colon
UACC-62 melanoma = test system: UACC-62 melanoma
A549 NSCLC = test system: A549 NSCLC
A498 renal = test system: A498 renal
HCC-2998 colon = test system: HCC-2998 colon
SF-268 CNS = test system: SF-268 CNS
MDA-MB-435 = test system: MDA-MB-435
SK-MEL-5 melanoma = test system: SK-MEL-5 melanoma
MOLT-4 leukemia = test system: MOLT-4 leukemia
SK-MEL-2 melanoma = test system: SK-MEL-2 melanoma
HOP-62 NSCLC = test system: HOP-62 NSCLC
DU-145 prostate = test system: DU-145 prostate
RXF 393 renal = test system: RXF 393 renal
NCI/ADR-RES ovarian = test system: NCI/ADR-RES ovarian
KM12 colon = test system: KM12 colon
OVCAR-4 ovarian = test system: OVCAR-4 ovarian
BT-549 breast = test system: BT-549 breast
SF-539 CNS = test system: SF-539 CNS
MCF7 breast = test system: MCF7 breast
CCRF-CEM leukemia = test system: CCRF-CEM leukemia
NCI-H226 lung = test system: NCI-H226 lung
UACC-257 melanoma = test system: UACC-257 melanoma
NCI-H522 lung = test system: NCI-H522 lung
T-47D breast = test system: T-47D breast
COLO 205 colon = test system: COLO 205 colon
PC-3 prostate = test system: PC-3 prostate
TK-10 renal = test system: TK-10 renal
LOX IMVI melanoma = test system: LOX IMVI melanoma
HCT-116 colon = test system: HCT-116 colon
NCI-H460 lung = test system: NCI-H460 lung
HOP-92 NSCLC = test system: HOP-92 NSCLC
SNB-19 CNS = test system: SNB-19 CNS
SN12C renal = test system: SN12C renal
HCT-15 colon = test system: HCT-15 colon
HL-60(TB) leukemia = test system: HL-60(TB) leukemia
SW-620 colon = test system: SW-620 colon
MALME-3M melanoma = test system: MALME-3M melanoma
CAKI-1 renal = test system: CAKI-1 renal
IGROV1 ovarian = test system: IGROV1 ovarian
HS 578T breast = test system: HS 578T breast

## Cc1cc(N[C@@H]2CCC[C@H](Nc3ccnc4cc(Cl)ccc34)C2)nc(N2CCCCCC2)n1
SK-OV-3 ovarian
  GI50: 1.86 µM
  TGI: 3.73 µM
SR leukemia
  GI50: 0.228 µM
  TGI: 0.847 µM
SK-MEL-28 melanoma
  GI50: 1.85 µM
  TGI: 3.62 µM
EKVX NSCLC
  GI50: 1.62 µM
  TGI: 3.84 µM
OVCAR-3 ovarian
  GI50: 1.91 µM
  TGI: 4.06 µM
U251 CNS
  GI50: 1.73 µM
  TGI: 3.41 µM
NCI-H23 lung
  GI50: 2.03 µM
  TGI: 5.43 µM
SF-295 CNS
  GI50: 1.32 µM
  TGI: 2.74 µM
OVCAR-8 ovarian
  GI50: 2.51 µM
  TGI: 6.1 µM
786-0 renal
  GI50: 1.47 µM
  TGI: 2.9 µM
K-562 leukemia
  GI50: 0.359 µM
  TGI: 1.69 µM
SNB-75 CNS
  GI50: 1.43 µM
  TGI: 3.14 µM
RPMI-8226 leukemia
  GI50: 1.64 µM
  TGI: 4.71 µM
OVCAR-5 ovarian
  GI50: 2.06 µM
  TGI: 6.26 µM
MDA-MB-231 breast
  GI50: 1.63 µM
  TGI: 3.43 µM
M14 melanoma
  GI50: 1.55 µM
  TGI: 3.29 µM
ACHN renal
  GI50: 1.83 µM
  TGI: 3.82 µM
UO-31 renal
  GI50: 1.13 µM
  TGI: 2.4 µM
HT29 colon
  GI50: 1.05 µM
  TGI: 2.98 µM
UACC-62 melanoma
  GI50: 1.81 µM
  TGI: 3.34 µM
A549 NSCLC
  GI50: 2.19 µM
  TGI: 4.94 µM
A498 renal
  GI50: 1.74 µM
  TGI: 3.2 µM
HCC-2998 colon
  GI50: 1.72 µM
  TGI: 3.29 µM
SF-268 CNS
  GI50: 1.54 µM
  TGI: 3.39 µM
MDA-MB-435
  GI50: 1.79 µM
  TGI: 3.33 µM
SK-MEL-5 melanoma
  GI50: 1.86 µM
  TGI: 3.27 µM
MOLT-4 leukemia
  GI50: 1.6 µM
  TGI: 5.73 µM
SK-MEL-2 melanoma
  GI50: 2.07 µM
  TGI: 4.52 µM
HOP-62 NSCLC
  GI50: 1.37 µM
  TGI: 3.03 µM
DU-145 prostate
  GI50: 2.99 µM
  TGI: 10.6 µM
RXF 393 renal
  GI50: 1.55 µM
  TGI: 3.1 µM
NCI/ADR-RES ovarian
  GI50: 1.69 µM
  TGI: 3.9 µM
KM12 colon
  GI50: 2.06 µM
  TGI: 4.48 µM
OVCAR-4 ovarian
  GI50: 1.72 µM
  TGI: 5.04 µM
BT-549 breast
  GI50: 1.75 µM
  TGI: 3.75 µM
SF-539 CNS
  GI50: 1.59 µM
  TGI: 3.03 µM
MCF7 breast
  GI50: 1.43 µM
  TGI: 3.03 µM
CCRF-CEM leukemia
  GI50: 1.59 µM
  TGI: 10.7 µM
NCI-H226 lung
  GI50: 2.42 µM
  TGI: 6.06 µM
UACC-257 melanoma
  GI50: 2.35 µM
  TGI: 4.19 µM
NCI-H522 lung
  GI50: 1.93 µM
  TGI: 4 µM
T-47D breast
  GI50: 2.22 µM
  TGI: 5.38 µM
COLO 205 colon
  GI50: 1.36 µM
  TGI: 2.89 µM
PC-3 prostate
  GI50: 1.81 µM
  TGI: 4.05 µM
TK-10 renal
  GI50: 1.73 µM
  TGI: 3.52 µM
LOX IMVI melanoma
  GI50: 1.43 µM
  TGI: 2.96 µM
HCT-116 colon
  GI50: 1.05 µM
  TGI: 2.36 µM
NCI-H460 lung
  GI50: 1.58 µM
  TGI: 3.2 µM
HOP-92 NSCLC
  GI50: 1.62 µM
  TGI: 3.36 µM
SNB-19 CNS
  GI50: 2.56 µM
  TGI: 8.08 µM
SN12C renal
  GI50: 1.55 µM
  TGI: 3.11 µM
HCT-15 colon
  GI50: 1.1 µM
  TGI: 2.62 µM
HL-60(TB) leukemia
  GI50: 1.7 µM
  TGI: 3.47 µM
SW-620 colon
  GI50: 1.52 µM
  TGI: 3.28 µM
MALME-3M melanoma
  GI50: 1.83 µM
  TGI: 3.42 µM

## CN(C)CC[C@H](CSc1ccccc1)Nc1ccc(S(=O)(=O)NC(=O)c2ccc(N3CCN(Cc4ccccc4-c4ccc(Cl)cc4)CC3)cc2)cc1[N+](=O)[O-]
SK-OV-3 ovarian
  GI50: 4.58 µM
  TGI: 16.9 µM
SR leukemia
  GI50: 3.85 µM
  TGI: 40.2 µM
SK-MEL-28 melanoma
  GI50: 5.73 µM
  TGI: > 100 µM
EKVX NSCLC
  GI50: 3.32 µM
  TGI: > 100 µM
OVCAR-3 ovarian
  GI50: 3.92 µM
  TGI: 23.6 µM
U251 CNS
  GI50: 3.9 µM
  TGI: 17.4 µM
NCI-H23 lung
  GI50: 9.07 µM
  TGI: > 100 µM
SF-295 CNS
  GI50: 3.6 µM
  TGI: > 100 µM
OVCAR-8 ovarian
  GI50: 6.12 µM
  TGI: > 100 µM
786-0 renal
  GI50: 3.6 µM
  TGI: 15.1 µM
K-562 leukemia
  GI50: 5.03 µM
  TGI: > 100 µM
SNB-75 CNS
  GI50: 6.09 µM
  TGI: > 100 µM
RPMI-8226 leukemia
  GI50: 2.56 µM
  TGI: > 100 µM
OVCAR-5 ovarian
  GI50: 5.07 µM
  TGI: 41.1 µM
MDA-MB-231 breast
  GI50: 1.55 µM
  TGI: 3.5 µM
M14 melanoma
  GI50: 4.17 µM
  TGI: 29.8 µM
ACHN renal
  GI50: 4.96 µM
  TGI: > 50.6 µM
UO-31 renal
  GI50: 3.53 µM
  TGI: 27.6 µM
HT29 colon
  GI50: 2.17 µM
  TGI: 5.02 µM
UACC-62 melanoma
  GI50: 3.51 µM
  TGI: 20 µM
A549 NSCLC
  GI50: 3.73 µM
  TGI: > 100 µM
A498 renal
  GI50: 0.0971 µM
  TGI: 0.818 µM
HCC-2998 colon
  GI50: 0.457 µM
  TGI: 2.01 µM
SF-268 CNS
  GI50: 5.84 µM
  TGI: > 100 µM
MDA-MB-435
  GI50: 2.47 µM
  TGI: > 34.6 µM
SK-MEL-5 melanoma
  GI50: 1.56 µM
  TGI: 3.23 µM
MOLT-4 leukemia
  GI50: 0.392 µM
  TGI: 2.64 µM
SK-MEL-2 melanoma
  GI50: 1.88 µM
  TGI: 4.94 µM
HOP-62 NSCLC
  GI50: 9.66 µM
  TGI: > 60.2 µM
DU-145 prostate
  GI50: 23 µM
  TGI: > 100 µM
RXF 393 renal
  GI50: 0.918 µM
  TGI: 4.27 µM
NCI/ADR-RES ovarian
  GI50: > 61.6 µM
  TGI: > 100 µM
CAKI-1 renal
  GI50: 6.71 µM
  TGI: > 100 µM
KM12 colon
  GI50: 3.6 µM
  TGI: 23.6 µM
OVCAR-4 ovarian
  GI50: 3.04 µM
  TGI: > 29.6 µM
BT-549 breast
  GI50: 17.3 µM
  TGI: > 100 µM
SF-539 CNS
  GI50: 36.5 µM
  TGI: > 100 µM
MCF7 breast
  GI50: 3 µM
  TGI: > 41.3 µM
CCRF-CEM leukemia
  GI50: 0.36 µM
  TGI: > 100 µM
NCI-H226 lung
  GI50: 4.59 µM
  TGI: 17.4 µM
UACC-257 melanoma
  GI50: 1.79 µM
  TGI: 6.16 µM
T-47D breast
  GI50: 5.87 µM
  TGI: > 60.4 µM
IGROV1 ovarian
  GI50: 3.05 µM
  TGI: > 51.6 µM
COLO 205 colon
  GI50: 2.12 µM
  TGI: 4.7 µM
PC-3 prostate
  GI50: 4.07 µM
  TGI: > 100 µM
TK-10 renal
  GI50: 2.44 µM
  TGI: 5.37 µM
LOX IMVI melanoma
  GI50: 2.77 µM
  TGI: > 100 µM
HCT-116 colon
  GI50: 2.93 µM
  TGI: > 27.3 µM
NCI-H460 lung
  GI50: 3.52 µM
  TGI: 23.9 µM
HS 578T breast
  GI50: 6.87 µM
  TGI: > 100 µM
HOP-92 NSCLC
  GI50: 0.186 µM
  TGI: 0.833 µM
SNB-19 CNS
  GI50: 4.68 µM
  TGI: > 100 µM
SN12C renal
  GI50: 3.56 µM
  TGI: > 56.7 µM
HCT-15 colon
  GI50: 5.09 µM
  TGI: > 100 µM
HL-60(TB) leukemia
  GI50: 0.35 µM
  TGI: 4.56 µM
SW-620 colon
  GI50: 4.02 µM
  TGI: > 61.1 µM
MALME-3M melanoma
  GI50: 3.11 µM
  TGI: 36.3 µM
